± gives the standard deviation of the averaged measurements.
Columns and labels:
Experiment in all cases: level (log10 ratio to DMSO vehicle control); higher = higher biomarker level / cell amount than vehicle control
Details in all cases: in DMSO
[1] = compound: O=S(=O)(O)C(F)(F)C(F)(F)C(F)(F)C(F)(F)C(F)(F)C(F)(F)C(F)(F)C(F)(F)F [Potassium perfluorooctanesulfonate]
Procedure: (§1)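 BioMAP Diversity Plus panel of 12 human primary cell co-culture systems (3C, 4H, LPS, SAg, BT, BF4T, BE3C, CASM3C, HDF3CGF, KF3CT, MyoF, Mphg). Compounds were added 1 h before stimulation and left for 24 h (MyoF 48 h; BT 72 h for soluble read-outs or 6 d for IgG). Biomarkers were read by ELISA, cytotoxicity by SRB, PBMC viability and proliferation by Alamar Blue. Each well value was divided by the mean of 8 DMSO control wells on the same plate and log10 transformed; duplicate blinded samples were tested at 4 concentrations.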

[2] = compound: CNS(=O)(=O)C(F)(F)C(F)(F)C(F)(F)C(F)(F)C(F)(F)C(F)(F)C(F)(F)C(F)(F)F [N-Methylperfluorooctanesulfonamide]
Procedure: as §1

[3] = compound: CC(C)(C)C(=O)CC(=O)C(F)(F)C(F)(F)C(F)(F)F [(Heptafluorobutanoyl)pivaloylmethane]
Procedure: as §1

[4] = compound: O=S(=O)(O)C(F)(F)C(F)(F)C(F)(F)C(F)(F)C(F)(F)C(F)(F)C(F)(F)C(F)(F)F [Perfluorooctanesulfonic acid]
Procedure: as §1

[5] = compound: O=C(O)CCC(F)(F)C(F)(F)C(F)(F)C(F)(F)C(F)(F)F [2H,2H,3H,3H-Perfluorooctanoic acid]
Procedure: as §1

Perfluorohexanoic acid = compound: O=C(O)C(F)(F)C(F)(F)C(F)(F)C(F)(F)C(F)(F)F [Perfluorohexanoic acid]
Procedure: as §1

Row | Test System | level (log10) ([1]; 6700 nM) | level (log10) ([1]; 20000 nM) | level (log10) ([1]; 60000 nM) | level (log10) ([2]; 6700 nM) | level (log10) ([2]; 20000 nM) | level (log10) ([2]; 60000 nM) | level (log10) ([3]; 6700 nM) | level (log10) ([3]; 20000 nM) | level (log10) ([3]; 60000 nM) | level (log10) ([4]; 6700 nM) | level (log10) ([4]; 20000 nM) | level (log10) ([4]; 60000 nM) | level (log10) ([5]; 6700 nM) | level (log10) ([5]; 20000 nM) | level (log10) ([5]; 60000 nM) | level (log10) (Perfluorohexanoic acid; 6700 nM) | level (log10) (Perfluorohexanoic acid; 20000 nM) | level (log10) (Perfluorohexanoic acid; 60000 nM)
1 | BF4T:IL-1alpha | 0.003 ± 0.0028 | 0.0065 ± 0.0078 | 0.0125 ± 0.044 | 0.0065 ± 0.0078 | 0.0005 ± 0.015 | 0.0285 ± 0.049 | 0.007 ± 0.011 | -0.0225 ± 0.011 | -0.028 ± 0.017 | 0.01 ± 0.011 | 0.002 ± 0.0014 | -0.002 ± 0.0099 | -0.0035 ± 0.0078 | -0.0065 ± 0.016 | 0.017 ± 0.021 | -0.001 ± 0.0042 | -0.0035 ± 0.012 | 0.007 ± 0.0042
2 | BF4T:Keratin 8/18 | -0.0035 ± 0.022 | 0.01 ± 0.014 | 0.0385 ± 0.053 | -0.02 ± 0.0042 | -0.0185 ± 0.013 | 0.0135 ± 0.023 | -0.007 ± 0.061 | -0.024 ± 0.041 | 0.0145 ± 0.0035 | -0.009 ± 0.0014 | -0.0015 ± 0.0021 | 0.0135 ± 0.021 | -0.0015 ± 0.015 | -0.0055 ± 0.0021 | 0.005 ± 0.024 | 0.017 ± 0.028 | 0.0165 ± 0.015 | -0.006 ± 0.037
3 | BF4T:MMP-1 | 0.028 ± 0.017 | 0.046 ± 0.0028 | 0.062 ± 0.011 | 0.012 ± 0.02 | 0.0105 ± 0.015 | -0.0105 ± 0.044 | 0.0005 ± 0.0035 | -0.0145 ± 0.0092 | -0.011 ± 0.02 | 0.02 ± 0.0014 | 0.029 ± 0.013 | 0.039 ± 0.047 | -0.003 ± 0.0042 | 0.001 ± 0.023 | 0.005 ± 0.021 | 0.0005 ± 0.015 | -0.009 ± 0.0071 | -0.0005 ± 0.0078
4 | BF4T:MMP-3 | 0.0175 ± 0.028 | 0.0635 ± 0.026 | 0.087 ± 0.065 | 0.0015 ± 0.046 | 0.012 ± 0.052 | 0.044 ± 0.064 | -0.031 ± 0.02 | -0.0345 ± 0.029 | -0.0285 ± 0.057 | 0.012 ± 0.035 | 0.0625 ± 0.012 | 0.059 ± 0.089 | -0.0015 ± 0.019 | 0.0025 ± 0.0035 | 0.0235 ± 0.066 | 0.003 ± 0.024 | -0.0095 ± 0.00071 | 0.0295 ± 0.043
5 | BF4T:MMP-9 | 0.024 ± 0.017 | 0.048 ± 0.02 | 0.0665 ± 0.046 | -0.0095 ± 0.011 | 0.008 ± 0.0014 | -0.021 ± 0.045 | -0.009 ± 0.042 | 0.0205 ± 0.029 | 0.033 ± 0.0014 | 0.02 ± 0.0028 | 0.033 ± 0.0099 | 0.019 ± 0.095 | -0.0095 ± 0.03 | -0.022 ± 0.027 | 0.015 ± 0.018 | 0.0215 ± 0.0035 | -0.01 ± 0.027 | 0.0215 ± 0.018
6 | BF4T:PAI-I | 0.0015 ± 0.0092 | -0.0045 ± 0.0078 | 0.007 ± 0.04 | 0.0005 ± 0.018 | 0.0015 ± 0.028 | 0.0285 ± 0.033 | -0.0045 ± 0.0021 | 0.001 ± 0.0028 | 0.0085 ± 0.012 | -0.002 ± 0.0085 | -0.0135 ± 0.0021 | -0.02 ± 0.052 | -0.005 ± 0.014 | -0.0155 ± 0.016 | -0.024 ± 0.014 | 0.011 | 0.004 ± 0.0028 | 0.0145 ± 0.0064
7 | BF4T:SRB | -0.01 ± 0.011 | -0.01 ± 0.0099 | -0.002 ± 0.0099 | -0.016 ± 0.0071 | -0.021 ± 0.0042 | -0.0115 ± 0.013 | -0.006 ± 0.0085 | 0.0075 ± 0.0021 | 0.0055 ± 0.023 | -0.0095 ± 0.0092 | -0.0115 ± 0.0021 | -0.0015 ± 0.026 | -0.0005 ± 0.0078 | -0.003 ± 0.013 | -0.005 ± 0.0028 | -0.0025 ± 0.00071 | -0.0095 ± 0.0092 | 0.0105 ± 0.0064
8 | BF4T:tPA | -0.0045 ± 0.0092 | -0.019 ± 0.0028 | 0.0185 ± 0.032 | 0.0145 ± 0.011 | 0.0325 ± 0.03 | 0.0515 ± 0.019 | -0.024 ± 0.027 | -0.033 ± 0.0057 | -0.0225 ± 0.026 | 0.0135 ± 0.013 | -0.0175 ± 0.00071 | 0.0195 ± 0.018 | -0.014 ± 0.0014 | -0.023 ± 0.0085 | -0.0535 ± 0.042 | -0.0045 ± 0.0064 | -0.0035 ± 0.019 | 0.0055 ± 0.013
9 | BF4T:uPA | -0.004 ± 0.0028 | 0.01 ± 0.016 | 0.0395 ± 0.043 | 0.0055 ± 0.0064 | 0.01 ± 0.014 | 0.0385 ± 0.028 | -0.006 ± 0.011 | -0.0085 ± 0.005 | -0.025 ± 0.0014 | 0.0005 ± 0.016 | 0.0175 ± 0.00071 | 0.0375 ± 0.023 | 0.0015 ± 0.015 | -0.003 ± 0.03 | -0.008 ± 0.013 | 0.01 ± 0.0028 | 0.004 | 0.0105 ± 0.0078
10 | BT:B cell Proliferation | 0.031 ± 0.016 | 0.0425 ± 0.018 | 0.0795 ± 0.005 | 0.006 ± 0.0028 | -0.007 ± 0.023 | -0.0195 ± 0.03 | 0.007 ± 0.0099 | 0.007 ± 0.028 | 0.033 ± 0.0057 | 0.0245 ± 0.0092 | 0.0375 ± 0.0092 | 0.0635 ± 0.035 | 0.0515 ± 0.028 | 0.078 ± 0.059 | 0.05 ± 0.05 | -0.047 ± 0.048 | -0.0035 ± 0.042 | 0.0275 ± 0.063
11 | BT:PBMC Cytotoxicity | -0.0055 ± 0.022 | 0.0125 ± 0.033 | 0.097 ± 0.058 | 0.0045 ± 0.019 | 0.016 ± 0.0099 | 0.0445 ± 0.011 | 0.0255 ± 0.0035 | -0.019 ± 0.011 | 0.0105 ± 0.042 | 0.0295 ± 0.0064 | 0.038 ± 0.016 | 0.078 ± 0.047 | 0.03 ± 0.021 | 0.0185 ± 0.033 | 0.019 ± 0.017 | -0.024 ± 0.028 | -0.0405 ± 0.028 | 0.004 ± 0.0057
12 | BT:Secreted IgG | 0.0115 ± 0.018 | 0.018 ± 0.0071 | -0.0055 ± 0.005 | 0.001 ± 0.0028 | -0.0745 ± 0.0092 | -0.306 ± 0.21 | -0.0115 ± 0.016 | -0.009 ± 0.017 | -0.023 ± 0.02 | -0.0005 ± 0.0078 | 0.0025 ± 0.021 | -0.0315 ± 0.016 | 0.016 ± 0.0028 | -0.033 ± 0.098 | -0.212 ± 0.17 | 0.0085 ± 0.00071 | 0.0155 ± 0.03 | -0.023 ± 0.061
13 | BT:sIL-2 | 0.042 ± 0.027 | 0.0595 ± 0.029 | -0.0325 ± 0.077 | -0.0385 ± 0.073 | -0.0105 ± 0.032 | 0.0385 ± 0.083 | -0.0485 ± 0.069 | -0.022 ± 0.0057 | 0.0155 ± 0.067 | 0.0065 ± 0.0078 | -0.0215 ± 0.044 | 0.014 ± 0.027 | -0.0225 ± 0.036 | 0.0065 ± 0.044 | -0.05 ± 0.072 | -0.0225 ± 0.0064 | 0.0345 ± 0.098 | 0.0275 ± 0.074
14 | BT:sIL-6 | 0.0165 ± 0.042 | 0.0765 ± 0.016 | -0.023 ± 0.11 | -0.0045 ± 0.04 | 0.003 ± 0.0042 | -0.083 ± 0.03 | -0.038 ± 0.038 | -0.029 ± 0.0057 | -0.013 ± 0.023 | 0.0325 ± 0.06 | -0.0415 ± 0.046 | -0.0185 ± 0.039 | 0.003 ± 0.011 | -0.0345 ± 0.013 | -0.0825 ± 0.032 | -0.0375 ± 0.079 | 0.013 ± 0.062 | -0.037 ± 0.021
